Assay results as given in patent EP0414422A2, “2-Oxo-1-oxa-8-azaspiro [4,5] decane derivatives, processes for their preparation and pharmaceutical compositions thereof” (RICHTER GEDEON VEGYESZETI GYAR R.T., priority 1989, dated 1991).

Experiments:
Acute toxicity = settings: male, Hannover-Wistar, rat, in vivo, po; rats, p.o., deaths observed for 14 days; read-out: LD₅₀
Protocol: (§1) Male CFLP mice with a body-weight of 18 to 25 g and male Hannover-Wistar rats with a body-weight of 160 to 180 g were used for the pharmacological investigations. The test compounds were orally administered in a 2% Tween-80 suspension. The pharmacological investigating methods used are described hereinafter.
Rats were treated with various doses of the test compounds. […] The LD₅₀ value, i.e. the dose causing the death of half of the animals, was determined from the percentage of the dead animals.

rats = experiment: Inhibition of the conditioned avoidance response (CAR inhibition) on rats; format: in vivo; settings: Rattus norvegicus, po; male Hannover-Wistar rats, p.o., treated 3 hours before the experiment; dose causing 50% inhibition of the conditioned avoidance response; read-out: CAR ED₅₀
From the text: as §1
2. Inhibition of the conditioned avoidance response (CAR inhibition) on rats
The method of D. Bovet et al. (Neuropsychopharmacology, ed. R. Rothlin Vol. 2, p. 142, Elsevier Publishing Co. N.Y. 1961) was used.
Male rats weighing 160 to 180 g were conditioned in an automated 6-channel Shuttle box for 10 days. Each daily session consisted of 50 cycles and each one cycle lasted for 40 seconds. Within a single cycle an intermittent light stimulus for 15 seconds as conditioned stimulus, and an electric stimulus of 0.8 mA for 10 seconds as unconditioned stimulus, were used with an intersignal time of 15 seconds. When an animal changed its half-court during the conditioned stimulus period, the stimulus was abolished and the footshock was avoided (conditioned avoidance response; abbreviated: CAR). Animals with a performance of at least 80% on the 8th to 10th days of conditioning were considered to be useful for the study. 3 hours before the experiment the animals were treated with various doses of the test substances and the ED₅₀ value, i.e. the dose causing an 50% inhibition of the conditioned avoidance response of the animals, was determined. Groups consisting of 10 animals each were used for each dose.

mice [1] = experiment: Measurement of the spontaneous body temperature; format: in vivo; settings: 30 mg/kg orally, rectal temperature 5 hours following treatment, related to untreated control animals
Protocol: as §1
3. Measurement of the spontaneous body temperature
Groups consisting of 10 mice each were orally treated with 30 mg/kg doses of the test substances. After treatment the rectal temperature of the male mice was determined each hour for 5 hours. The average values of temperature decrease related to the body temperature of the untreated control animals (37.1±0.8 °C) 5 hours following treatment are given in Table 1.

mice [2] = experiment: Inhibition of the aggressive behaviour of the mice; format: in vivo; settings: Mus musculus, po; male mice, p.o., 3 hours following the treatment, electric stimulation of 1 mA; read-out: Antiaggressive effect, ED₅₀
Protocol: as §1
4. Inhibition of the aggressive behaviour of the mice
The method described in J. Pharmacol. Expt. Therap. 125, 28 (1959) was used.
Pairs of male mice weighing 20 to 25 each were treated with the test compounds and then placed in cages. 3 hours following the treatment an aggressive behaviour was induced on the animals by using an electric stimulation of 1 mA current intensity. Each group consisted of 5 pairs of mice. The ED₅₀ values were calculated from the percentage of animal pairs showing no aggressive behaviour as a result of the treatment. (ED₅₀ value is the dose inhibiting the aggressive behaviour on 50% of the animals.)

aggregated mice = experiment: Protective effect against the amphetamine group toxicity on aggregated mice; format: in vivo; settings: Mus musculus; male CFLP mice, p.o., one hour before 21 mg/kg d-amphetamine intraperitoneally; surviving animals counted after 24 hours; read-out: Protection against amph. ED₅₀
Protocol: as §1
1. Protective effect against the amphetamine group toxicity on aggregated mice
The method described in Arch. Int. Pharmacodyn. 163, 79 (1966) was used.
The mice were treated with various doses of the test substances. After one hour following the above treatment, the animals were intraperitoneally given 21 mg/kg of d-amphetamine and then the groups consisting of 10 animals each were tightly packed together in plexiglass boses of 15x15x10 cm in size. After 24 hours had elapsed following the amphetamine treatment the surviving animals were counted. The ED₅₀ values of the substances were calculated from the percentage of the surviving animals. The ED₅₀ value is the dose protecting 50% of the animals from death.

Compound	LD50 at 14 days (Acute toxicity)	ED50 (rats)	Decrease in the spontaneous temperature (mice [1])	ED50 (mice [2])	ED50 (aggregated mice)
C=C1N(C)C(=O)OC12CCN(CCCN1c3ccccc3Sc3ccc(C(F)(F)F)cc31)CC2 [C, 3-methyl-4-methylene-2-oxo-8-[3-(2-trifluoromethyl-10H-phenothiazin-10-yl)propyl]-1-oxa-3,8-diazaspiro[4,5]decane]	235 mg/kg	1.9 mg/kg	-9.9 C°	1.2 mg/kg	0.7 mg/kg
CN(C)CCCN1c2ccccc2Sc2ccc(Cl)cc21 [CPZ, 2-chloro-10-(3-dimethylaminopropyl)phenothiazine, reference compound]	225 mg/kg	17.1 mg/kg	-7.9 C°	4.3 mg/kg	7.2 mg/kg
C=C1N(C)C(=O)OC12CCN(CCCN1c3ccccc3Sc3ccc(Cl)cc31)CC2 [Compound A, 8-[3-(2-chloro-10H-phenothiazin-10-yl)propyl]-3-methyl-4-methylene-2-oxo-1-oxa-3,8-diazaspiro[4,5]decane]	353 mg/kg	6 mg/kg	-8.8 C°	1.7 mg/kg	0.6 mg/kg
CN1C(=O)OC2(CCN(CCCN3c4ccccc4Sc4ccc(C(F)(F)F)cc43)CC2)C1(C)O (centres unmarked) [H, 3,4-dimethyl-4-hydroxy-2-oxo-8-[3-(2-trifluoromethyl-10H-phenothiazin-10-yl)propyl]-1-oxa-3,8-diazaspiro[4,5]decane]	–	3.1 mg/kg	-9.6 C°	–	0.9 mg/kg
C=C1N(CC)C(=O)OC12CCN(CCCN1c3ccccc3Sc3ccc(Cl)cc31)CC2 [B, 8-[3-(2-chloro-10H-phenothiazin-10-yl)propyl]-3-ethyl-4-methylene-2-oxo-1-oxa-3,8-diazaspiro[4,5]decane]	500 mg/kg	1.6 mg/kg	-7.4 C°	10.9 mg/kg	1.6 mg/kg
CCN1C(=O)OC2(CCN(CCCN3c4ccccc4Sc4ccc(Cl)cc43)CC2)C1(C)O (centres unmarked) [G, 8[3-(2-chloro-10H-phenothiazin-10-yl)propyl]-3-ethyl-4-hydroxy-4-methyl-2-oxo-1-oxa-3,8-diazaspiro[4,5]decane]	–	6.9 mg/kg	-8.1 C°	–	2.4 mg/kg
CN1C(=O)OC2(CCN(CCCN3c4ccccc4Sc4ccc(Cl)cc43)CC2)C1(C)O (centres unmarked) [F, 8-[3-(2-chloro-10H-phenothiazin-10-yl)propyl]-3,4-dimethyl-4-hydroxy-2-oxo-1-oxa-3,8-diazaspiro[4,5]decane]	–	4.6 mg/kg	-9.1 C°	–	0.7 mg/kg
C=C1N(CC)C(=O)OC12CCN(CCCN1c3ccccc3Sc3ccc(C(F)(F)F)cc31)CC2 [D, 3-ethyl-4-methylene-2-oxo-8-[3-(2-trifluoromethyl-10H-phenothiazin-10-yl)propyl]-1-oxa-3,8-diazaspiro[4,5]decane]	500 mg/kg	6.8 mg/kg	-8.2 C°	2.5 mg/kg	4.1 mg/kg
CCCN1C(=O)OC2(CCN(CCCN3c4ccccc4Sc4ccc(C(F)(F)F)cc43)CC2)C1(C)O (centres unmarked) [I, 4-hydroxy-4-methyl-2-oxo-3-propyl-8-[3-(2-trifluoromethyl-10H-phenothiazin-10-yl)propyl]-1-oxa-3,8-diazaspiro[4,5]decane]	–	5.6 mg/kg	-7.0 C°	–	4.2 mg/kg
C=C1N(CCC)C(=O)OC12CCN(CCCN1c3ccccc3Sc3ccc(Cl)cc31)CC2 [E]	–	10.6 mg/kg	-5.6 C°	2 mg/kg	1.8 mg/kg
